Reference: PMC11904221 (EMBO Molecular Medicine, 2025)
pIC50, pKd: −log10 of the molar value. ≈ marks a conversion by molar mass, not a printed value. Where “and” joins values, the source holds several entries; their conditions need not be identical. Equal entries are not always repeated. Where two headings read alike, the source gives them in different places. Where a SMILES comes first, the peptide text is derived from it.

Tests used:
in vivo = settings: both sexes, BALB/c, mouse, ip
Protocol: Pharmacological profile of APLN-DM peptide
Maximal Tolerated Dose (MTD) study of APLN -DM in mice
Six groups comprising six Balb/C mice per group (3 males and 3 females) were assigned to the study. In each gender, one control group (1 Male (M)/1 female (F)) received the reference solution (vehicle) and 5 […]
mg/kg (4M/4F), 2000 mg/kg (5M/5F) and 1500 mg/kg (6M/6F). APLN-DM peptide was administrated via intra-peritoneal (IP) single injection at day 1 followed by observation during 14 days. During the study, mortality, morbidity, general clinical signs and bod y weight were recorded. In the end of the study pathology and organ necropsy examination were performed. Thereby, APLN-DM peptide and vehicle were administered to mice according to Table-1 and their effects were analyzed according to Table-2.
Each test item dose was administrated to 3 female and 3 male mice. The administration was performed IP at a dose volume of 10 ml/kg. Dosing was performed according to Figure-1 and each increase in dose pending on the outcome of the previous dose (results of clinical signs). The lag time between the increasing doses was approximately 48h.
No. (n=) Mouse# Treatment Dose Level administration administratio […]
Table-1. Study design -1. […], […]
Study Day* Procedure Body Weight Clinical Mortality & Organ
Sign Morbidity observation
2-14 - Twice weekly Once -
15 Termination √ √ Gross pathology
Figure 1 - Decisional tree for successive dosing for MTD determination […]
At study termination, body weight (Figure 2 and Figure 3) and gross pathology abnormalities were analyzed in all animals. Main pathological finding were blood clots in intestine and chest cavity. Treatment-related clinical adverse side effects (purple tail, lethargy, decreased motor activity) were observed also in groups treated either with 200, 500, 1000 and 1500 mg/kg. The tail recovered a normal color after 1 hour in all dose groups. […]
abnormalities were detected in all male and female animals from these groups at the scheduled termination […]

in vitro [1] = test: in vitro
[2] = Pharmacokinetic profile in mice, LC/MS; assay type: in vivo, mouse; settings: Balb/C mice plasma, LC/MS, estimated from the 5 and 10 min samples
Protocol: Pharmacokinetic profile of APLN-DM in mice
The aim of the current study was to evaluate pharmacokinetic properties of APLN-DM peptide administrated intravenously (IV) or intraperitoneously (IP) in Balb/C mice. […]
for the IP group). Development of quantification method was performed using liquid chromatography coupled to mass spectrometry (LC/MS).
Results: Samples obtained in vivo were analyzed according to quantification-developed method and the peptide was detectable until 15 minutes after administration. Analysis allowed determining that APLN-DM […]
All animals were divided to three groups of 27 animals, one of 12 animals and one of 3 animals (vehicle) and will receive the corresponding test item according to Table 1. Each animal was weighed and administered at the appropriate volume.
Concentration ROA Blood Individual animal numbers
Group No. Treatment Dose Collect
Table 11 - Group allocation
Development of analytic method
Standard range from 0.5 to 100 µM was prepared and analysed for each fragmented ion as previously […]
Standard curves obtained for each ion are represented in Figure 6.
Figure 8: Standard curves obtained by quantification of each fragmented ion The best linearity was obtained by quantifying the fragmented ion 785 (z=5).
Quantification of APLN-DM in samples
Summary of analytical method development:
Quantification method was performed according to previous work. In summary, samples were analysed with a LC-MS triple quadripole system (ESI QqQ). The chromatographic system was a UPLC activity (Waters) coupled to a mass spectrometer TSQ Quantum Ultra (Thermo) equipped with triple quadripole analyser and electrospray ionisation (ESI) system. The selected column was Kinetex F5 […] 50x2.1 mm (Phenomenex). The analysis was made by quantifying fragmented ion z=5 (m/z=785) in samples compared […]
quantitation was previously determined to be 0.5 µM. Samples were analysed after protein precipitation as […]
In vivo phase samples analysis
As the stability of peptide is low, even in frozen plasma, it was decided to re-run the in vivo phase for the highest dose and to use freshly prepared samples.
26 samples were used for analysis.
Only samples taken 5 and 10 minutes after peptide administration presented detectable concentrations (see
Table 9). While 15 min results were on the level of accuracy (linearity threshold values). At a later time […]
estimated based on the 5 and 10 min measurements.
Sample ID Area Calculated amount

[3] = liver microsomes
apelin receptor [4] = target: T1, apelin receptor (Homo sapiens, UniProt P35414); test: Plasmon waveguide resonance (PWR) ligand binding; set-up: expressed in transfected cells; host or cells: HEK cells overexpressing apelin receptor (membrane fragments); settings: HEK-apelin receptor cell membrane fragments on polylysine-treated sensor, 22 °C, n = 3
T1 sequence (P35414 1-380): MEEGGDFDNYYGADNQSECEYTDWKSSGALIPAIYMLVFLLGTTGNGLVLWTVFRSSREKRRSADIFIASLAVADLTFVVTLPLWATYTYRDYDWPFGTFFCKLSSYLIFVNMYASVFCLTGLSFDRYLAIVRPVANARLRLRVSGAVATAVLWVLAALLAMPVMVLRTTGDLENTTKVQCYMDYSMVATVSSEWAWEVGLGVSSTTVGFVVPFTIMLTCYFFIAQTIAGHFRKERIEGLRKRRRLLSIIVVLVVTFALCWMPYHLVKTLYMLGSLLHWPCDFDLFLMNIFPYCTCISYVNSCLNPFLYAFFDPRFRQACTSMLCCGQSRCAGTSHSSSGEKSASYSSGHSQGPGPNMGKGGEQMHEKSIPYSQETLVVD
From the text: Red arrows indicate the direction of vessel formation. […] All data are representative of three independent experiments. […] The two Furin cleavage sites are shown. […] (S–U) Plasmon waveguide resonance (PWR). […] Source data are available online for this figure.

CT-26 tumors = assay type: in vivo; settings: Appendix Fig. S13
From the text: Tumor growth, apoptosis, proliferation, and/or the angiogenic index of the developed tumors were first evaluated.
(A) Scheme and workflow of apelin-dm preclinic studies. […] (B–D) Error bars indicate s.e.m. center values indicate mean (Mann–Whitney U test). […] The percentage of relative staining intensity corresponding to CD31, Ki67, and BIM expression in CT-26 and MC-38 tumors of treated mice are shown in (I–N). Scale bar, 100 µm. Data represent mean ± s.e.m. of 3–4 independent experiments. P values were calculated with the Student t test in GraphPad. […] Quantification of tumor area (P) and vascularized area (Q) relative to control untreated CAMs (n = 3 CAM per group) assigned 100%. Data represent mean ± s.e.m. P values were calculated with the Student t test in GraphPad. […] (S, T) The average blood flow expressed in % relative to blood flow measured in […] (S) and MDA-MB231 (T) developed tumors. Data represent mean ± s.e.m. of 3–4 independent experiments. P values were calculated with the Student t test in GraphPad. Source data are available online for this figure.
Additional experiments involved injecting 1 × 10^6 control CT-26/MC-38/MDA-MB231 cells into BALB/c, C57BL/6, or nude mice, respectively. […] LASER Doppler imaging assessed total blood flow, with FlowR® Hemodynamics visualization used for analysis. Results were expressed as % relative to pre-treatment tumor blood flow.

apelin receptor [5] = target: T1, apelin receptor; test: Radioligand binding assay; set-up: purchased Euroscreen FAST-020B; settings: competition with [125I]-(Pyr1)-apelin-13, apelin receptor membrane extracts 2 μg protein/well, 96-well plates
Protocol: (§1) Scale bar, 50 µm. (C) Radioligand binding assay. […] Data are representative of three independent experiments and data shown as the mean ± s.e.m. […] The signals were sorted from high (red) to low (blue) intensity/phosphorylation. […] Source data are available online for this figure.
Dose-response curves were established and the estimated IC50 values were calculated for each compound.

[6] = pH 7.4
in vitro [7] = test: in vitro; remark: listed apart in the source
in vitro [8] = settings: human
Furin = Furin (Homo sapiens, UniProt P09958)
AKT and ERK = test: Phosphorylation of AKT and ERK in HUVEC, SMC, CT-26, HEK 293; assay type: cell-based; settings: HUVECs, SMCs, CT-26 cells, HEK-293 cells
From the text: as §1

Chain of Furin (P09958 108-794, species assumed): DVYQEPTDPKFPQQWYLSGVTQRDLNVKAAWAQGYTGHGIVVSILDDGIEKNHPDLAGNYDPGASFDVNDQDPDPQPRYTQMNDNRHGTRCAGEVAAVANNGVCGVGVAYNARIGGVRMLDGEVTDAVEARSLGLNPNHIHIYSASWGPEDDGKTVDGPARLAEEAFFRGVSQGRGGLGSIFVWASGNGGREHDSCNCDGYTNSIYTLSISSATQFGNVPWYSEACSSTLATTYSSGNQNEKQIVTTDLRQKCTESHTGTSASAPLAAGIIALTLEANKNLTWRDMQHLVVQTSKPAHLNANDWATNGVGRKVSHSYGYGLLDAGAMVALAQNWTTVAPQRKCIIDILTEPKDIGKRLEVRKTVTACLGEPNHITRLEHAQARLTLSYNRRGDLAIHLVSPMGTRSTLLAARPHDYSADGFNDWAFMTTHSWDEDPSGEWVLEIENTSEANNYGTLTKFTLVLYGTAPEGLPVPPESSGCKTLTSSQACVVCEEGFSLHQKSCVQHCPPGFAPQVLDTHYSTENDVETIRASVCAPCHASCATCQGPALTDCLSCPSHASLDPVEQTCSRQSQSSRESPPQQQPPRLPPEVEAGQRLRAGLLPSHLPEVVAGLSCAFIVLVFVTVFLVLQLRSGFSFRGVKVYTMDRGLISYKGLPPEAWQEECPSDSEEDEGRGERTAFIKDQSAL

| Compound | MTD at 336 h (in vivo) [mg/kg] | % Protein bound, Mean (in vitro [1]) [%] | half-life in vivo in mice [2] [h] | Intrinsic clearance in liver microsomes [3] [µL/min/mg] | pKd (apelin receptor [4]) | toxicity in treated tumor-bearing mice (CT-26 tumors) | pIC50 (apelin receptor [5]) | Solubility, Mean [6] [µM] | % Protein bound, Mean (in vitro [7]) [%] | fraction unbound (in vitro [7]; plasma) | Half-life, Mean (in vitro [8]) [h] | half-life (in vitro [8]; plasma) [h] | cleavage by Furin (Furin) | ERK and AKT activation (AKT and ERK) |
| --- | --- | --- | --- | --- | --- | --- | --- | --- | --- | --- | --- | --- | --- | --- |
| CSCC[C@H](NC(=O)[C@@H]1CCCN1C(=O)CNC(=O)[C@H](CCCCN)NC(=O)[C@H](Cc1c[nH]cn1)NC(=O)[C@H](CO)NC(=O)[C@H](CC(C)C)NC(=O)[C@H](CCCNC(=N)N)NC(=O)[C@@H]1CCCN1C(=O)[C@H](CCCNC(=N)N)NC(=O)[C@H](CCC(N)=O)NC(=O)[C@H](CO)NC(=O)[C@H](CO)NC(=O)[C@H](Cc1ccccc1)NC(=O)[C@H](CCCCN)NC(=O)[C@H](CO)NC(=O)[C@H](CO)NC(=O)CNC(=O)CNC(=O)[C@H](CCC(N)=O)NC(=O)[C@H](Cc1c[nH]c2ccccc12)NC(=O)[C@@H]1CCCN1C(=O)CNC(=O)[C@@H]1CCCN1C(=O)CNC(=O)[C@H](CC(N)=O)NC(=O)[C@H](CCCNC(=N)N)NC(=O)[C@H](CO)NC(=O)CNC(=O)[C@H](CCCNC(=N)N)NC(=O)[C@@H]1CCCN1C(=O)[C@H](CCC(N)=O)NC(=O)[C@@H](NC(=O)[C@@H](N)CC(C)C)C(C)C)C(=O)N1CCC[C@H]1C(=O)N[C@@H](Cc1ccccc1)C(=O)O [apelin-dm] (H-LVQPRGSRNGPGPWQGGSSKFSSQRPRLSHKGPMPF-OH) | > 1000 | 26 | 0.333 | < 115.5 | ~10.52 | no obvious toxicity in treated mice was observed | 9.35 and 9.33 | 187.3 (≈ 734 µg/mL) | 54 | ~0.5 | 18.68 | > 18 | more stable and not cleaved | – |
| apelin | – | – | – | – | – | – | – | – | – | – | – | – | – | activated ERK and AKT |
